In publication PMC11501026, “L-Arginine and asymmetric dimethylarginine (ADMA) transport across the mouse blood-brain and blood-CSF barriers: Evidence of saturable transport at both interfaces and CNS to blood efflux” (PLOS ONE, 2024):
Structures can show the parent of a compound that is named as a salt. Where two headings read alike, the source gives them in different places.

Experiments:
[1] = capillary depletion analysis after in situ brain perfusion; type: in vivo, mouse; settings: male, BALB/c, mouse, 5ml/min; for Kp at 10 min, 62.5 nM / Kp at 30 min, 62.5 nM: other: in situ brain perfusion, Balb/c ♂; for Kp at 10 min, 62.5 nM: CONTROL; for Kp at […]: 2.5 mins
Experimental: The microvasculature within a sample of brain tissue can be separated from the brain parenchyma using capillary depletion analysis. Following perfusion, the remaining brain tissue after microdissection of the regions described above (typically 200–300 mg) underwent capillary depletion following a method modified for mouse. […]

[2] = self-inhibition, in situ perfusion: [^3H]-ADMA with 100 μM unlabelled ADMA; type: in vivo, mouse; settings: male, BALB/c, mouse, other: in situ brain perfusion, with unlabelled ADMA 100 µM, 10 mins, Balb/c ♂, 5ml/min
Experimental: (§1) Self-inhibition experiments were also performed. […] Cross-competition experiments were also performed.
(§2) The percentage change in the RTissue uptake values achieved in the absence or presence of an unlabelled inhibitor can be calculated by means of Eq 4.
(§3) %change=RTissue−RInhibition/RTissue×100 Eq 4
(§4) We define RInhibition as the RTissue uptake in the presence of an inhibitor in the artificial plasma.
(§5) A decrease in the uptake of radiolabelled solute in the presence of unlabelled inhibitor is indicative of a saturable influx transport system. Conversely, an increase in the uptake of radiolabelled solute in the presence of unlabelled inhibitor is indicative of a saturable efflux transport system.

[3] = tested on: [^3H]-ADMA transport across the blood-brain and blood-CSF barriers; test: as above; type: in vivo, mouse; settings: 100 μM unlabelled ADMA; CSF; 10 minutes; not statistically significant, n of 2
Experimental: as §1, §2, §3, §4, §5

[4] = tested on: [^3H]-arginine transport across the blood-brain and blood-CSF barriers; test: cross-inhibition, in situ perfusion: [^3H]-arginine with 0.5–500 μM unlabelled ADMA; type: in vivo, mouse
Experimental: as §1, §2, §3, §4, §5
Concentrations of ADMA were specifically selected to mimic plasma concentrations under normal conditions (0.5 μM), pathophysiological conditions (3.0 μM), and then supraphysiological concentrations (10, 100 and 500 μM).

[5] = pH 7.4
Experimental: The lipophilicity of the radiolabelled test molecules was also measured by means of an octanol:saline partition coefficient. […] Centrifugation separated the hydrophobic (octanol) phase and hydrophilic (saline) phase and 100 μL samples in triplicate were taken for radioactive liquid scintillation counting on a Tricarb 2900TR liquid scintillation counter (Perkin-Elmer; Boston, MA, USA). The partition coefficient was calculated as the ratio of radioactivity in the octanol phase to the radioactivity in the aqueous phase.

CAT1 = settings: HEK293 overexpressing CAT1; read-out: IC50, inhibition of CAT1-mediated transport of L-arginine; cited from earlier work
eNOS = settings: read-out: inhibition constant (Ki); cited from earlier work
[6] = tested on: human dermal microvascular endothelial cells; settings: cited from earlier work
[7] = whole-brain homogenate (capillary depletion), Difference (ADMA minus Sucrose), homogenate, mean
[8] = whole-brain homogenate (capillary depletion), [3H] ADMA and [14C] Sucrose uptake, homogenate, mean

With CN(C)C(N)=NCCC[C@H](N)C(=O)O [ADMA, N^G,N^G-dimethylarginine dihydrochloride] the Kp at 10 min, 62.5 nM ([1]; endothelial cell-enriched pellet (capillary depletion), Difference (ADMA minus Sucrose), pellet, mean) was 0.00783, the Kp at 30 min, 62.5 nM ([1]; endothelial cell-enriched pellet (capillary depletion), [3H] ADMA + [14C] Sucrose, individual mice, read-out: uptake, pellet) was 0.0184 and the Kp at 30 min, 62.5 nM ([1]; endothelial cell-enriched pellet (capillary depletion), [3H] ADMA + [14C] Sucrose, mean, read-out: uptake, pellet) was 0.0166. The Kp at 10 min, 62.5 nM ([1]; endothelial cell-enriched pellet (capillary depletion), [3H] ADMA and [14C] Sucrose uptake, pellet, mean) was 0.0527, the Kp at […] [1, 7] was 0.0793 and the Kp at 20 min, 62.5 nM [1, 7] was 0.208. For the same molecule, the Kp at […] [1, 8] was 0.0942, the Kp at 20 min, 62.5 nM [1, 8] was 0.234 and the Kp at 30 min, 62.5 nM [1, 7] was 0.122. For the same molecule, the Kp at 10 min, 62.5 nM ([1]; whole-brain homogenate (capillary depletion), Difference (ADMA minus Sucrose), homogenate, individual mouse) was 0.136, the Kp at 10 min, 62.5 nM [1, 7] was 0.127 and the Kp at 30 min, 62.5 nM ([1]; whole-brain homogenate (capillary depletion), [3H] ADMA + [14C] Sucrose, mean, read-out: uptake, homogenate) was 0.156. For the same molecule, the Kp at 10 min, 62.5 nM [1, 8] was 0.224, the Kp at 10 min, 62.5 nM ([2]; caudate nucleus, Difference (ADMA minus Sucrose), caudate nucleus, + 100uM un-labelled ADMA, mean) was 0.0707 and the Kp at 10 min, 62.5 nM ([2]; caudate nucleus, [3H] ADMA + [14C] Sucrose + 100uM un-labelled ADMA, mean, read-out: uptake into caudate nucleus) was 0.102. It also gave a Kp at 10 min, 62.5 nM ([2]; choroid plexus, Difference (ADMA minus Sucrose), choroid plexus, + 100uM un-labelled ADMA, individual mice) of 0.47, a Kp at 10 min, 62.5 nM ([2]; choroid plexus, Difference (ADMA minus Sucrose), choroid plexus, + 100uM un-labelled ADMA, mean) of 0.458 and a Kp at 10 min, 62.5 nM ([2]; choroid plexus, [3H] ADMA + [14C] Sucrose + 100uM un-labelled ADMA, individual mice, read-out: uptake into choroid plexus) of 0.617. The Kp at 10 min, 62.5 nM ([2]; choroid plexus, [3H] ADMA + [14C] Sucrose + 100uM un-labelled ADMA, mean, read-out: uptake into choroid plexus) was 0.627, the Kp at 10 min, 62.5 nM ([2]; frontal cortex, Difference (ADMA minus Sucrose), frontal cortex, + 100uM un-labelled ADMA, mean) was 0.0696 and the Kp at 10 min, 62.5 nM ([2]; frontal cortex, [3H] ADMA + [14C] Sucrose + 100uM un-labelled ADMA, mean, read-out: uptake into frontal cortex) was 0.101. For the same molecule, the Kp at 10 min, 62.5 nM ([2]; hippocampus, Difference (ADMA minus Sucrose), hippocampus, + 100uM un-labelled ADMA, mean) was 0.056, the Kp at 10 min, 62.5 nM ([2]; hippocampus, [3H] ADMA + [14C] Sucrose + 100uM un-labelled ADMA, mean, read-out: uptake into hippocampus) was 0.0817 and the Kp at 10 min, 62.5 nM ([2]; occipital cortex, Difference (ADMA minus Sucrose), occipital cortex, + 100uM un-labelled ADMA, individual mice) was 0.0613. It also gave a Kp at 10 min, 62.5 nM ([2]; occipital cortex, Difference (ADMA minus Sucrose), occipital cortex, + 100uM un-labelled ADMA, mean) of 0.0767, a Kp at 10 min, 62.5 nM ([2]; occipital cortex, [3H] ADMA + [14C] Sucrose + 100uM un-labelled ADMA, individual mice, read-out: uptake into occipital cortex) of 0.0898 and a Kp at 10 min, 62.5 nM ([2]; occipital cortex, [3H] ADMA + [14C] Sucrose + 100uM un-labelled ADMA, mean, read-out: uptake into occipital cortex) of 0.107. For the same molecule, the Kp at 10 min, 62.5 nM ([2]; pineal gland, Difference (ADMA minus Sucrose), pineal gland, + 100uM un-labelled ADMA, mean) was 3.33, the Kp at 10 min, 62.5 nM ([2]; pineal gland, [3H] ADMA + [14C] Sucrose + 100uM un-labelled ADMA, mean, read-out: uptake into pineal gland) was 3.5 and the “reduction of [^3H]-ADMA uptake” value [3] was 89.1%. The “effect on [^3H]-arginine distribution” value ([4]; 100 μM unlabelled ADMA, any of the samples analysed, 10 minutes) was “did not inhibit”, the “inhibition of [^3H]-arginine distribution” value ([4]; 500 μM unlabelled ADMA, choroid plexus, 10 minutes) was 72.6% and the “inhibition of [^3H]-arginine uptake” value ([4]; 500 μM unlabelled ADMA, each of the brain regions, 10 minutes) was “approximately 70%”. The “inhibition of [^3H]-arginine distribution” value ([4]; 500 μM unlabelled ADMA, supernatant (brain parenchyma), 10 minutes) was 72.0%, the “inhibition of [^3H]-arginine distribution” value ([4]; 500 μM unlabelled ADMA, whole brain homogenate, 10 minutes) was 65.1% and the “effect on transport of [^3H]-arginine ([…]) across the blood-CNS barriers” value ([4]; 0.5–100 μM unlabelled ADMA) was “insensitive to inhibition”. The “effect on [^3H]-arginine distribution” value ([4]; any concentration of unlabelled ADMA (0.5–500 μM), CSF, pineal gland and pituitary gland, 10 minutes) was “not affected”, the “effect on [^3H]-arginine distribution” value ([4]; up to 500 μM unlabelled ADMA, cerebral capillary endothelial cells (pellet), 10 minutes) was “not affected” and the octanol-saline partition coefficient [5] was 0.00226±0.00006. The IC50 (CAT1) was 758 µM, the Ki (eNOS) was 0.9 µM and the “effect on [^3H]-arginine transport” value ([6]; 100 μM unlabelled ADMA) was “significant inhibitory effect”. For the same molecule, the “effect on [^3H]-arginine transport” value ([6]; 2.5–10 μM ADMA) was “did not affect”.
